# From PMC4573583 (ACS chemical biology, 2015)
# Entries after “also recorded” stand apart in the source; their conditions may differ.
# Legend:
# BamL = conditions: cited from earlier work
# aqueous solubility = assay type: physicochemical; conditions: in words
# B. anthracis Sterne [1] = assay type: cell-based, Bacillus anthracis; conditions: 24 μM, 12 h treatment, duplicate, *P<0.01 vs DMSO-treated
# Escherichia coli DH5a = assay type: cell-based
# [2] = system: Bacillus anthracis Sterne; conditions: microbroth dilution method, ref [6], [10]; cited from earlier work
# Bacillus subtilis 168 = assay type: cell-based
# MRSA (S. aureus NRS384) = assay: cell density after 12 h treatment, MRSA; assay type: cell-based, Staphylococcus aureus; conditions: 24 μM, duplicate, #P<0.01 vs DMSO-treated MRSA
# B. anthracis Sterne [3] = assay type: cell-based, Bacillus anthracis; conditions: 4 μM, 30 min, mid-exponential phase cells, 22 °C
# [4] = system: other members of the genus Bacillus; conditions: cited from earlier work
# [5] = system: other representative members of the genus Bacillus; assay type: cell-based
compound,measurement,setting,value
NC(=O)[C@@H](N)CCCN=C(N)N [Arg amide],acceptance as substrate,BamL,poorer substrate that is turned over by BamL but only under single-turnover conditions; also recorded: only so under near-single turnover conditions
N=C(N)NCCC[C@H](N)C(=O)O [Arg],acceptance as substrate,BamL,not accepted as a substrate
RCTCTT [Arg-Az5],aqueous solubility,aqueous solubility,moderate solubility
plantazolicin [PZN],"bactericidal effect (cell density, 595 nm)",B. anthracis Sterne [1],bactericidal
same,minimum inhibitory concentration (MIC),Escherichia coli DH5a,>48 µM
same,susceptibility to purified PZN,[2],the only organism susceptible to the action of purified PZN to date has been Bacillus anthracis
same,minimum inhibitory concentration (MIC),Bacillus subtilis 168,>48 µM
same,"antibiotic activity (cell density, 595 nm)",MRSA (S. aureus NRS384),not PZN displays antibiotic activity against MRSA
same,cell lysis,B. anthracis Sterne [3],induces major cell lysis above the MIC; also recorded: shows cell lysis
same,growth inhibitory activity,[4],weak growth inhibitory activity
same,activity against other Bacillus (microbroth dilution),[5],> 48 µM
